Experimental findings from paper PMC3501516, “Anti-Diabetic Efficacy and Impact on Amino Acid Metabolism of GRA1, a Novel Small-Molecule Glucagon Receptor Antagonist” (PLoS ONE, 2012) are described below.

Marks after values point to notes of the source that are not given here.

Broadly, the half-life is how long it takes for the measured level to halve. One may read the IC50 as the concentration that inhibits the measured activity by half.

The test system of one data set is DIO hGCGR mice. In words: Chronic GRA1 treatment of diet-induced obese (DIO) hGCGR mice. The data set is classed as in vivo, hGCGR mouse. The note with it: for Free fatty acid, terminal plasma / Insulin, terminal plasma / LDL cholesterol, terminal plasma / Glucagon, terminal plasma / Triglyceride, terminal plasma / Non-LDL cholesterol, terminal plasma / Cholesterol, terminal plasma: 10 weeks; for Free fatty acid, terminal plasma: control 1.04±0.13; for Insulin, terminal plasma: control 8.5±2.0; for LDL cholesterol, terminal plasma: control 19.6±2.3; for Glucagon, terminal plasma: control 164±24; for Triglyceride, terminal plasma: control 181±11; for Non-LDL cholesterol, terminal plasma: control 205±12; for Cholesterol, terminal plasma: control 233±15. From the text:
The present study made use of a line of hGCGR-expressing mouse (“hGCGR mouse”) generated previously by substituting the hGCGR gene for the mouse GCGR gene. These mice were crossed with C57BL/6J.ob/+ mice (Jackson Laboratories, Bar Harbor, ME) to obtain an hGCGR.ob/+ mouse line. The hGCGR.ob/+ mice were then intercrossed to obtain hGCGR.ob/ob, hGCGR.ob/+, and hGCGR.+/+ mice (with the hGCGR.ob/+ and hGCGR.+/+ mice serving as littermate controls). […] obese (DIO) hGCGR mice were generated by maintaining hGCGR mice on a high-fat diet (HFD) in which 45–60% of calories were in fat (Product S3282, Bio-Serv, Frenchtown, NJ). High-fat-diet-streptozotocin-treated (HFD/STZ) diabetic mice were generated in-house as previously described.
Animals were dosed chronically with GRA1 and the DPP-4 inhibitor des-fluoro-sitagliptin by administering these agents as food admixtures. The admixtures were prepared in-house and by Research Diets (New Brunswick, NJ), with drug concentrations adjusted weekly on the basis of average food consumption and animal weight to provide targeted daily doses. In the GRA1 experiments, the targeted doses were 3, 6, 10, and 30 mg/kg•day. In des-fluoro-sitagliptin experiments, the targeted dose was 200 mg/kg•day, a relatively high amount necessary because this compound has a half-life in rodents of 1–2 h.
Plasma glucagon and active GLP-1 were measured using commercial ELISA kits (Linco Research Immunoassay, St. Charles, MO). […] Plasma insulin was determined by ELISA with a commercial kit (ALPCO Diagnostics, Windham, NH). Plasma concentrations of glycated hemoglobin A1c (HbA1c) were measured using a Micromat II test kit from Bio-Rad Laboratories (Hercules, CA). Total cholesterol, low-density lipoprotein cholesterol (LDL-c) and non-LDL-c, and aspartate aminotransferase were measured using a Roche P Modular Clinical Chemistry analyzer (Indianapolis, IN).
Figure 4 GRA1 lowers blood glucose in the DIO hGCGR and hGCGR.ob/ob mouse. Mean (±SEM) blood glucose concentrations in (A) non-fasted and (B) fasted DIO hGCGR mice treated with approximately 3 and 10 mg/kg·day GRA1 provided as a food admixture. (Additional data from this study are in Table 2). (C) Mean (±SEM) blood glucose concentrations in the hGCGR.ob/ob mouse following single oral doses of 1, 3, or 10 mg/kg GRA1 or vehicle. (D) Mean (±SEM) non-fasted blood glucose concentrations in hGCGR.ob/ob mice treated for 2–8 weeks with control diet or 10 mg/kg·day GRA1 administered as diet admixture. *p<0.05, **p<0.01, and ***p<0.001 in timepoint-matched comparisons with controls; n = 8 in each group.

Data set [1] can be described thus: Pharmacokinetics / plasma GRA1 concentrations in rhesus monkeys. The data set is classed as in vivo, rhesus monkey.
The target in a further data set is T1, human GCGR (hGCGR) (Homo sapiens, UniProt P47871).
T1 construct: expressed in transfected cells
T1 sequence (P47871 26-477): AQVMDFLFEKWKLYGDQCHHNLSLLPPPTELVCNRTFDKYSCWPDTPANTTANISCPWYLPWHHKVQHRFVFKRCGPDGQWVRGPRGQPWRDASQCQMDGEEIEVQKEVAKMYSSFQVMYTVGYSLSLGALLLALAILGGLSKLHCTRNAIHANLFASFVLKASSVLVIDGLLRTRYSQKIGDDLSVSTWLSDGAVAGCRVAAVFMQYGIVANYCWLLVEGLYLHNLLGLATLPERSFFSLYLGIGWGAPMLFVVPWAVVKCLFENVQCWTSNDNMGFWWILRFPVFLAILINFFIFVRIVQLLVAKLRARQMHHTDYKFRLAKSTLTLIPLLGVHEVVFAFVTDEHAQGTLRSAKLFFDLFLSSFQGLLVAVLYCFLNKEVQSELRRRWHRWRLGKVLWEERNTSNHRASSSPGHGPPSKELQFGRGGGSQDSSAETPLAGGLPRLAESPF
As to the kind of experiment: Inhibition of 125I-glucagon binding to hGCGR in membranes of CHO cells expressing hGCGR. The note with it: CHO cell membranes. From the text:
Transfected Chinese hamster ovary (CHO) cell lines were acquired and maintained as previously described, [20]. These included separate cell lines stably expressing human GCGR (hGCGR), mouse GCGR, rhesus GGCR, glucose-dependent insulinotropic peptide receptor (GIPR), GLP-1 receptor (GLP-1R), pituitary adenylate cyclase-activating polypeptide receptor type 1 (PAC1R), and vasoactive adenylate cyclase-activating polypeptide receptor type 2 (VPAC2R). Inhibition of glucagon binding to hGCGR was assayed in cell membranes prepared from the line of CHO cells that expressed the hGCGR. Functional antagonism was assayed by measuring the production of cAMP in intact CHO cells stimulated by agonists specific for their cognate receptors (i.e., glucagon for GCGR-expressing cell lines, GIP for the GIPR-expressing line, etc.). Primary human hepatocytes were obtained from In Vitro Technologies (Baltimore, MD) and glucagon-stimulated glycogenolysis was studied in these as previously described.

For the molecule `COc1ccc2cc(-c3cc(-c4cc(C(F)(F)F)ccc4F)nn3[C@@H](C)c3ccc(C(=O)NCCC(=O)O)cc3)ccc2c1` [GRA1, N-[4-((1S)-1-{3-(2-fluoro-5-trifluoromethylphenyl)-5-[6-methoxynaphth-2-yl]-1H-pyrazol-1-yl}ethyl)benzoyl]-β-alanine], the “Effect on blood glucose” value in the data set with DIO hGCGR mice (1–10 weeks, 3 or 10 mg/kg•day) is listed as “significant, sustained reductions in blood glucose”. The “Food intake and body weight” value with DIO hGCGR mice (3 or 10 mg/kg•day (data not shown)) was “not affected”. Further, the “Increase of plasma glucagon” value in the data set on DIO hGCGR mice (3 or 10 mg/kg•day (either dose)) is “approximately 2 fold”. For the same molecule, in the data set with DIO hGCGR mice (3 mg/kg•day), the “Free fatty acid, terminal plasma” value stood at 0.84 ± 0.08 mM; the “Insulin, terminal plasma” value came out at 4.2 ± 1.1 ng/mL; the “LDL cholesterol, terminal plasma” value is 25.4±2.9 mg/dLl; the “Glucagon, terminal plasma” value was 374±53* pg/mL. In addition, in the data set on DIO hGCGR mice (3 mg/kg•day), the “Triglyceride, terminal plasma” value was 141±13* mg/dL; the “Non-LDL cholesterol, terminal plasma” value came out at 216 ± 16 mg/dL; the “Cholesterol, terminal plasma” value came to 255 ± 17 mg/dL. In the data set with DIO hGCGR mice (10 mg/kg•day), the “Free fatty acid, terminal plasma” value is 0.69±0.04* mM; the “Insulin, terminal plasma” value is 5.7 ± 1.4 ng/mL; the “LDL cholesterol, terminal plasma” value is reported as 19.4±2.4 mg/dLl; the “Glucagon, terminal plasma” value was found to be 343 ± 85 pg/mL. In the data set with DIO hGCGR mice (10 mg/kg•day), the “Triglyceride, terminal plasma” value is given as 122±10** mg/dL; the “Non-LDL cholesterol, terminal plasma” value was determined as 186 ± 7 mg/dL; the “Cholesterol, terminal plasma” value was 213 ± 8 mg/dL. Also, the “Islet morphology and ratio of insulin-positive to glucagon-positive cells (pancreas immunohistochemistry)” value with DIO hGCGR mice (treated vs control (data not shown)) is “no significant differences”. Further, the concentration at 1 h in data set [1] (rhesus monkey, plasma, oral, 1 mg/kg, 1 h postdose (glucagon challenge)) was 200 nM. The half-life in data set [1] (rhesus monkey, plasma, single oral dose 2 mg/kg, read-out: Apparent plasma terminal half-life (converted)) is 6.3 h. In addition, in data set [1] (single oral dose 2 mg/kg), the “Fraction of the dose absorbed” value is 55% and the Route of excretion result is “nearly all absorbed drug was excreted unchanged via the bile”. In addition, the IC50 at human GCGR (hGCGR) amounted to 4 nM.
